According to patent US20120034613A1, “Apparatus and Method for Testing Relationships Between Gene Expression and Physical Appearance of Skin” (NSE Products, Inc., priority 2010, published 2012):

Legend:
[1] = test system: facial skin; assay: Clinical investigator grading of facial attributes, 9-point ordinal scale, 12 week clinical study; format: in vivo, human; conditions: for Cheek Wrinkles clinical grading Mean: Baseline mean 2.41; for Under-Eye Area Wrinkles clinical grading Mean: Baseline mean 3.19; for Crows Feet Wrinkles clinical grading Mean: Baseline mean 3.29; for Face Tactile Roughness/Smoothness clinical grading Mean: Baseline mean 3.48; for Face Fine Lines (Overall) clinical grading Mean: Baseline mean 4.29; for Face Pore Size clinical grading Mean: Baseline mean 4.41; for Face Global Firmness Appearance clinical grading Mean: Baseline mean 5.03; for Face Mottled Pigmentation clinical grading Mean / Face Uneven Skin Tone clinical grading Mean: Baseline mean 5.05; for Face Jawline Contour clinical grading Mean: Baseline mean 5.16; for Face Overall Appearance clinical grading Mean: Baseline mean 5.47; for Face Radiance clinical grading Mean: Baseline mean 5.81
Description: At baseline (Visit 1), each prospective subject completed an Eligibility and Health Questionnaire, and read and signed a Confidentially Agreement, a Photography Release Form and an Informed Consent Agreement. Each subject was explained the type of study, the detailed procedures and materials to be tested, along with any known adverse reactions that may result from participation. Subjects arrived at the clinic having refrained from applying any moisturizer to the face at least 3 to 5 days prior to visit and having cleansed the face to remove all makeup at least 30 minutes prior to visit. Subjects were consequently not allowed to use any other topical cosmeceuticals, topical retinoid, or moisturizers during the 12 week duration of the study. Subjects used the study product on their face twice daily for 12 weeks. Ordinal grading on a 9-point scale (0=none, 1-3=mild, 4-6=moderate, 7-9=severe) of facial fine lines, mottled pigmentation, uneven skin tone, tactile roughness, global firmness appearance, jaw-line contour, radiance and overall appearance was performed by investigator at baseline, week 1, week 4, week 8 and week 12. Digital high-resolution photography was performed on the front, right and left sides of the face. Each image was taken while the subject's eyes were open. Each subject's baseline photograph was compared to each post-baseline photograph to ensure consistent placement and lighting. Color standards were imaged prior to each study visit. All clinical and corneometer measurements and evaluations were taken at baseline, week 1 (visit 2), week 4 (visit 3), week 8 (visit 4) and week 12 (visit 5). Ultrasound and cutometer measurements and evaluations were taken at baseline, week 4 (visit 3), week 8 (visit 4) and week 12 (visit 5). Completed patient's diaries were reviewed for compliance at each visit. Mean clinical grading and instrumentation scores at each visit were statistically compared to baseline scores using paired t-test. Changes from baseline were considered significant at the p≦0.05 level. Mean percent change from baseline and incidence of positive responders were calculated for all attributes. Comparisons, based on the average from baseline, were made between the test materials using analysis of variance (ANOVA).

[2] = test system: facial skin in the crow's feet area; assay: Ultrasound measurement of density of the facial skin, 12 week clinical study; format: in vivo, human; conditions: for Ultrasound Density Mean: Baseline mean 18.55
Description: Ultrasound measurements were taken on the left side of each subject's face to measure density of the facial skin in the crow's feet area. Measurements were taken with the probe oriented perpendicular to the body axis while the subjects were resting supine on a padded patient table. All clinical and corneometer measurements and evaluations were taken at baseline, week 1 (visit 2), week 4 (visit 3), week 8 (visit 4) and week 12 (visit 5). Ultrasound and cutometer measurements and evaluations were taken at baseline, week 4 (visit 3), week 8 (visit 4) and week 12 (visit 5). Completed patient's diaries were reviewed for compliance at each visit. Mean clinical grading and instrumentation scores at each visit were statistically compared to baseline scores using paired t-test. Changes from baseline were considered significant at the p≦0.05 level. Mean percent change from baseline and incidence of positive responders were calculated for all attributes. Comparisons, based on the average from baseline, were made between the test materials using analysis of variance (ANOVA).

For OCc1ccccc1O[C@@H]1O[C@H](CO)[C@@H](O)[C@H](O)[C@H]1O [Salicin, 2-(Hydroxymethyl)phenyl β-D-glucospyranoside], the “Cheek Wrinkles clinical grading Mean” value ([1]; Week 1) was 2.29, the “Under-Eye Area Wrinkles clinical grading Mean” value ([1]; Week 1) was 3.07 and the “Crows Feet Wrinkles clinical grading Mean” value ([1]; Week 1) was 3.21. For the same molecule, the “Face Tactile Roughness/Smoothness clinical grading Mean” value ([1]; Week 1) was 2.41, the “Face Fine Lines (Overall) clinical grading Mean” value ([1]; Week 1) was 4.14 and the “Face Pore Size clinical grading Mean” value ([1]; Week 1) was 4.30. The “Face Global Firmness Appearance clinical grading Mean” value ([1]; Week 1) was 5.04, the “Face Mottled Pigmentation clinical grading Mean” value ([1]; Week 1) was 5.05 and the “Face Uneven Skin Tone clinical grading Mean” value ([1]; Week 1) was 5.05. The “Face Jawline Contour clinical grading Mean” value ([1]; Week 1) was 5.14, the “Face Overall Appearance clinical grading Mean” value ([1]; Week 1) was 5.21 and the “Face Radiance clinical grading Mean” value ([1]; Week 1) was 5.20. The “Cheek Wrinkles clinical grading % Change” value ([1]; Week 1 vs Baseline) was “(−1.5%)”, the “Crows Feet Wrinkles clinical grading % Change” value ([1]; Week 1 vs Baseline) was “(−0.5%)” and the “Face Fine Lines (Overall) clinical grading % Change” value ([1]; Week 1 vs Baseline) was “(−3.7%)”. The “Face Global Firmness Appearance clinical grading % Change” value ([1]; Week 1 vs Baseline) was “(0.3%)”, the “Face Jawline Contour clinical grading % Change” value ([1]; Week 1 vs Baseline) was “(0.0%)” and the “Face Mottled Pigmentation clinical grading % Change” value ([1]; Week 1 vs Baseline) was “(−0.7%)”. For the same molecule, the “Face Overall Appearance clinical grading % Change” value ([1]; Week 1 vs Baseline) was “(−4.2%)”, the “Face Pore Size clinical grading % Change” value ([1]; Week 1 vs Baseline) was “(−2.4%)” and the “Face Radiance clinical grading % Change” value ([1]; Week 1 vs Baseline) was “(−11.0%)”. The “Face Tactile Roughness/Smoothness clinical grading % Change” value ([1]; Week 1 vs Baseline) was “(−30.7%)”, the “Face Uneven Skin Tone clinical grading % Change” value ([1]; Week 1 vs Baseline) was “(−0.7%)” and the “Under-Eye Area Wrinkles clinical grading % Change” value ([1]; Week 1 vs Baseline) was “(−1.7%)”. The “Cheek Wrinkles clinical grading Mean” value ([1]; Week 4) was 2.26, the “Under-Eye Area Wrinkles clinical grading Mean” value ([1]; Week 4) was 2.79 and the “Crows Feet Wrinkles clinical grading Mean” value ([1]; Week 4) was 3.00. For the same molecule, the “Face Tactile Roughness/Smoothness clinical grading Mean” value ([1]; Week 4) was 2.02, the “Face Fine Lines (Overall) clinical grading Mean” value ([1]; Week 4) was 3.76 and the “Face Pore Size clinical grading Mean” value ([1]; Week 4) was 4.05. The “Face Global Firmness Appearance clinical grading Mean” value ([1]; Week 4) was 4.86, the “Face Mottled Pigmentation clinical grading Mean” value ([1]; Week 4) was 4.74 and the “Face Uneven Skin Tone clinical grading Mean” value ([1]; Week 4) was 4.74. The “Face Jawline Contour clinical grading Mean” value ([1]; Week 4) was 5.10, the “Face Overall Appearance clinical grading Mean” value ([1]; Week 4) was 4.91 and the “Face Radiance clinical grading Mean” value ([1]; Week 4) was 4.90. For the same molecule, the “Cheek Wrinkles clinical grading % Change” value ([1]; Week 4 vs Baseline) was “(−6.4%)”, the “Crows Feet Wrinkles clinical grading % Change” value ([1]; Week 4 vs Baseline) was “(−8.9%)” and the “Face Fine Lines (Overall) clinical grading % Change” value ([1]; Week 4 vs Baseline) was “(−12.4%)”. The “Face Global Firmness Appearance clinical grading % Change” value ([1]; Week 4 vs Baseline) was “(−3.4%)”, the “Face Jawline Contour clinical grading % Change” value ([1]; Week 4 vs Baseline) was “(−1.0%)” and the “Face Mottled Pigmentation clinical grading % Change” value ([1]; Week 4 vs Baseline) was “(−6.1%)”. For the same molecule, the “Face Overall Appearance clinical grading % Change” value ([1]; Week 4 vs Baseline) was “(−10.0%)”, the “Face Pore Size clinical grading % Change” value ([1]; Week 4 vs Baseline) was “(−8.2%)” and the “Face Radiance clinical grading % Change” value ([1]; Week 4 vs Baseline) was “(−15.7%)”. For the same molecule, the “Face Tactile Roughness/Smoothness clinical grading % Change” value ([1]; Week 4 vs Baseline) was “(−42.0%)”, the “Face Uneven Skin Tone clinical grading % Change” value ([1]; Week 4 vs Baseline) was “(−6.1%)” and the “Under-Eye Area Wrinkles clinical grading % Change” value ([1]; Week 4 vs Baseline) was “(−12.4%)”. The “Cheek Wrinkles clinical grading Mean” value ([1]; Week 8) was 2.12, the “Under-Eye Area Wrinkles clinical grading Mean” value ([1]; Week 8) was 2.55 and the “Crows Feet Wrinkles clinical grading Mean” value ([1]; Week 8) was 2.71. The “Face Tactile Roughness/Smoothness clinical grading Mean” value ([1]; Week 8) was 1.43, the “Face Fine Lines (Overall) clinical grading Mean” value ([1]; Week 8) was 3.47 and the “Face Pore Size clinical grading Mean” value ([1]; Week 8) was 3.86. For the same molecule, the “Face Global Firmness Appearance clinical grading Mean” value ([1]; Week 8) was 4.64, the “Face Mottled Pigmentation clinical grading Mean” value ([1]; Week 8) was 4.57 and the “Face Uneven Skin Tone clinical grading Mean” value ([1]; Week 8) was 4.57. The “Face Jawline Contour clinical grading Mean” value ([1]; Week 8) was 4.95, the “Face Overall Appearance clinical grading Mean” value ([1]; Week 8) was 4.67 and the “Face Radiance clinical grading Mean” value ([1]; Week 8) was 4.72. The “Cheek Wrinkles clinical grading % Change” value ([1]; Week 8 vs Baseline) was “(−12.1%)”, the “Crows Feet Wrinkles clinical grading % Change” value ([1]; Week 8 vs Baseline) was “(−17.8%)” and the “Face Fine Lines (Overall) clinical grading % Change” value ([1]; Week 8 vs Baseline) was “(−19.2%)”. For the same molecule, the “Face Global Firmness Appearance clinical grading % Change” value ([1]; Week 8 vs Baseline) was “(−7.8%)”, the “Face Jawline Contour clinical grading % Change” value ([1]; Week 8 vs Baseline) was “(−4.0%)” and the “Face Mottled Pigmentation clinical grading % Change” value ([1]; Week 8 vs Baseline) was “(−9.5%)”. The “Face Overall Appearance clinical grading % Change” value ([1]; Week 8 vs Baseline) was “(−14.5%)”, the “Face Pore Size clinical grading % Change” value ([1]; Week 8 vs Baseline) was “(−12.5%)” and the “Face Radiance clinical grading % Change” value ([1]; Week 8 vs Baseline) was “(−18.6%)”. The “Face Tactile Roughness/Smoothness clinical grading % Change” value ([1]; Week 8 vs Baseline) was “(−58.9%)”, the “Face Uneven Skin Tone clinical grading % Change” value ([1]; Week 8 vs Baseline) was “(−9.5%)” and the “Under-Eye Area Wrinkles clinical grading % Change” value ([1]; Week 8 vs Baseline) was “(−20.0%)”. For the same molecule, the “Cheek Wrinkles clinical grading Mean” value ([1]; Week 12) was 2.02, the “Under-Eye Area Wrinkles clinical grading Mean” value ([1]; Week 12) was 2.24 and the “Crows Feet Wrinkles clinical grading Mean” value ([1]; Week 12) was 2.48. For the same molecule, the “Face Tactile Roughness/Smoothness clinical grading Mean” value ([1]; Week 12) was 0.98, the “Face Fine Lines (Overall) clinical grading Mean” value ([1]; Week 12) was 3.10 and the “Face Pore Size clinical grading Mean” value ([1]; Week 12) was 3.71. The “Face Global Firmness Appearance clinical grading Mean” value ([1]; Week 12) was 4.48, the “Face Mottled Pigmentation clinical grading Mean” value ([1]; Week 12) was 4.33 and the “Face Uneven Skin Tone clinical grading Mean” value ([1]; Week 12) was 4.34. The “Face Jawline Contour clinical grading Mean” value ([1]; Week 12) was 4.74, the “Face Overall Appearance clinical grading Mean” value ([1]; Week 12) was 4.50 and the “Face Radiance clinical grading Mean” value ([1]; Week 12) was 4.59. The “Cheek Wrinkles clinical grading % Change” value ([1]; Week 12 vs Baseline) was “(−16.4%)”, the “Crows Feet Wrinkles clinical grading % Change” value ([1]; Week 12 vs Baseline) was “(−24.6%)” and the “Face Fine Lines (Overall) clinical grading % Change” value ([1]; Week 12 vs Baseline) was “(−27.7%)”. For the same molecule, the “Face Global Firmness Appearance clinical grading % Change” value ([1]; Week 12 vs Baseline) was “(−10.9%)”, the “Face Jawline Contour clinical grading % Change” value ([1]; Week 12 vs Baseline) was “(−8.0%)” and the “Face Mottled Pigmentation clinical grading % Change” value ([1]; Week 12 vs Baseline) was “(−14.3%)”. The “Face Overall Appearance clinical grading % Change” value ([1]; Week 12 vs Baseline) was “(−17.6%)”, the “Face Pore Size clinical grading % Change” value ([1]; Week 12 vs Baseline) was “(−16.0%)” and the “Face Radiance clinical grading % Change” value ([1]; Week 12 vs Baseline) was “(−21.0%)”. For the same molecule, the “Face Tactile Roughness/Smoothness clinical grading % Change” value ([1]; Week 12 vs Baseline) was “(−71.7%)”, the “Face Uneven Skin Tone clinical grading % Change” value ([1]; Week 12 vs Baseline) was “(−13.9%)” and the “Under-Eye Area Wrinkles clinical grading % Change” value ([1]; Week 12 vs Baseline) was “(−29.7%)”. The “Ultrasound Density Mean” value ([2]; Week 4) was 21.38, the “Ultrasound Density % Change” value ([2]; Week 4 vs Baseline) was “(15.2%)” and the “Ultrasound Density Mean” value ([2]; Week 8) was 23.52. For the same molecule, the “Ultrasound Density % Change” value ([2]; Week 8 vs Baseline) was “(26.7%)”, the “Ultrasound Density Mean” value ([2]; Week 12) was 25.21 and the “Ultrasound Density % Change” value ([2]; Week 12 vs Baseline) was “(35.8%)”.
